For 21 compounds, IC50 results are on record in patent publication US20240067662A1, “KRAS INHIBITORS” (Bristol-Myers Squibb Company, priority 2022, published 2024).

The test concerns the target GMPPNP-loaded KRAS G12C (Homo sapiens, UniProt P01116, G12C). As to the kind of experiment: KRAS G12C RAF Disruption Assay (HTRF). The class given is biochemical. The conditions noted are these: recombinant GMPPNP-loaded KRAS G12C (5 nM), 20 min with compound; GST-RAF1 RBD (9 nM); HTRF signal; read-out: KRASG12C RAF Disruption Assay (IC50). Put shortly: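 GMPPNP-loaded KRAS G12C (5 nM) was preincubated with compound for 20 min at room temperature in Tris pH 7.5 buffer with NaCl, MgCl2, DTT and BSA. GST-RAF1 RBD (9 nM) was added for 20 min, then SA-Tb (0.25 nM) for 3 h. IC50 was fitted from the HTRF 520/495 ratio.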
Broadly, the IC50 is the midpoint of a concentration-inhibition curve. `C#Cc1cccc2c(F)ccc(-c3ncc4c(N5CCN(C(=O)/C(F)=C/c6ccccn6)CC5)nc(OC[C@@]56CCCN5C[C@H](F)C6)nc4c3F)c12` [Compound 87, (Z)-1-(4-(7-(8-ethynyl-4-fluoronaphthalen-1-yl)-8-fluoro-2-(((2R, 7aS)-2-fluorotetrahydro-1H-pyrrolizin-7a(5H)-yl)methoxy)pyrido[4,3-d]pyrimidin-4-yl)piperazin-1-yl)-2-fluoro-3-(pyridin-2-yl)prop-2-en-1-one]: the IC50 came to 1600 nM. Then `C#Cc1cccc2cccc(-c3ncc4c(N(C)C5CCN(C(=O)/C(F)=C/c6nccs6)C5C)nc(OC[C@@]56CCCN5C[C@H](F)C6)nc4c3F)c12` (single isomer, unassigned) [Example 73 trans isomer 1], with 1600 nM. Then `N#Cc1cccc2cccc(-c3ncc4c(N5CCN(C(=O)/C(F)=C/c6nccs6)CC5)nc(OC[C@@]56CCCN5C[C@H](F)C6)nc4c3F)c12` [Example 50, 8-(8-fluoro-4-(4-((Z)-2-fluoro-3-(thiazol-2-yl)acryloyl)piperazin-1-yl)-2-(((2R, 7aS)-2-fluorotetrahydro-1H-pyrrolizin-7a(5H)-yl)methoxy)pyrido[4,3-d]pyrimidin-7yl)-1-naphthonitrile], with 840 nM; and `C#Cc1cccc2cccc(-c3ncc4c(N(C)C5CCN(C(=O)/C(F)=C/c6nccs6)C5C)nc(OC[C@@]56CCCN5C[C@H](F)C6)nc4c3F)c12` (single isomer, unassigned) [Example 73 trans isomer 2], with 5700 nM. As to `C#Cc1cccc2cccc(-c3ncc4c(N(C)C5CCN(C(=O)/C(F)=C/c6ccccn6)C5C)nc(OC[C@@]56CCCN5C[C@H](F)C6)nc4c3F)c12` (single isomer, unassigned) [Example 74 cis isomer 2], the IC50 came out at 910 nM. On to `C#Cc1cccc2cccc(-c3nc(OC)c4c(N5CCN(C(=O)/C(F)=C/c6nccs6)CC5)nc(OC[C@@]56CCCN5C[C@H](F)C6)nc4c3F)c12` [Compound 110, (Z)-1-(4-(7-(8-ethynylnaphthalen-1-yl)-8-fluoro-2-(((2R, 7aS)-2-fluorotetrahydro-1H-pyrrolizin-7a(5H)-yl)methoxy)-5-methoxypyrido[4,3-d]pyrimidin-4-yl)piperazin-1-yl)-2-fluoro-3-(thiazol-2-yl)prop-2-en-1-one], for which the IC50 is 180 nM. For `C#Cc1c(F)c(F)cc2cccc(-c3ncc4c(N5CCN(C(=O)/C(F)=C/c6ncccn6)CC5)nc(OC[C@@]56CCCN5C[C@H](F)C6)nc4c3F)c12` [Compound 98, (Z)-1-(4-(7-(8-ethynyl-6,7-difluoronaphthalen-1-yl)-8-fluoro-2-(((2R, 7aS)-2-fluorotetrahydro-IH-pyrrolizin-7a(5H)-yl)methoxy)pyrido[4,3-d]pyrimidin-4-yl)piperazin-1-yl)-2-fluoro-3-(pyrimidin-2-yl)prop-2-en-1-one], the IC50 came out at 91 nM. Then `C#Cc1c(F)ccc2cc(O)cc(-c3ncc4c(N5C[C@H]6CC[C@@H](C5)N6C(=O)/C(F)=C/c5ncco5)nc(OC[C@@]56CCCN5C[C@H](F)C6)nc4c3F)c12` [Compound 4, (Z)-1-((1R, 5S)-3-(7-(8-ethynyl-7-fluoro-3-hydroxynaphthalen-1-yl)-8-fluoro-2-(((2R, 7aS)-2-fluorotetrahydro-1H-pyrrolizin-7a(5H)-yl)methoxy)pyrido[4,3-d]pyrimidin-4-yl)-3,8-diazabicyclo[3.2.1]octan-8-yl)-2-fluoro-3-(oxazol-2-yl)prop-2-en-1-one], with 260 nM.

Regarding `C#Cc1cccc2cccc(-c3ncc4c(N5CCN(C(=O)/C(F)=C/c6ncco6)CC5)nc(OC[C@@]56CCCN5C[C@H](F)C6)nc4c3F)c12` [Compound 124, (Z)-1-(4-(7-(8-ethynylnaphthalen-1-yl)-8-fluoro-2-(((2R, 7aS)-2-fluorotetrahydro-1H-pyrrolizin-7a(5H)-yl)methoxy)pyrido[4,3-d]pyrimidin-4-yl)piperazin-1-yl)-2-fluoro-3-(oxazol-2-yl)prop-2-en-1-one], the IC50 amounted to 540 nM. `C#Cc1cccc2cccc(-c3ncc4c(N(C)[C@H]5CN(C(=O)/C(F)=C/c6cnccn6)C[C@H]5F)nc(OC[C@@]56CCCN5C[C@H](F)C6)nc4c3F)c12` [Compound 130, (Z)-1-((3S,4R)-3-((7-(8-ethynylnaphthalen-1-yl)-8-fluoro-2-(((2R, 7aS)-2-fluorotetrahydro-1H-pyrrolizin-7a(5H)-yl)methoxy)pyrido[4,3-d]pyrimidin-4-yl)(methyl)amino)-4-fluoropyrrolidin-1-yl)-2-fluoro-3-(pyrazin-2-yl)prop-2-en-1-one]: the IC50 is 60 nM.

For `N#CC[C@H]1CN(c2nc(OC[C@@]34CCCN3C[C@H](F)C4)nc3c(F)c(-c4ccccc4C4CC4)ncc23)CCN1C(=O)/C(F)=C/c1ccccn1` [Compound 79, 2-((2S)-4-(7-(2-cyclopropylphenyl)-8-fluoro-2-(((2R, 7aS)-2-fluorotetrahydro-1H-pyrrolizin-7a(5H)-yl)methoxy)pyrido[4,3-d]pyrimidin-4-yl)-1-((Z)-2-fluoro-3-(pyridin-2-yl)acryloyl)piperazin-2-yl)acetonitrile], the IC50 was 65 nM.

Consider `N#Cc1cccc2cccc(-c3ncc4c(N5CCN(C(=O)/C(F)=C/c6ccccn6)CC5)nc(OC[C@@]56CCCN5C[C@H](F)C6)nc4c3F)c12` [Example 49, 8-(8-fluoro-4-(4-((Z)-2-fluoro-3-(pyridin-2-yl)acryloyl)piperazin-1-yl)-2-(((2R, 7aS)-2-fluorotetrahydro-1H-pyrrolizin-7a(5H)-yl)methoxy)pyrido[4,3-d]pyrimidin-7yl)-1-naphthonitrile], for which the half-maximal inhibitory concentration (IC50) was 800 nM. Then `N#CC[C@H]1CN(c2nc(OC[C@@]34CCCN3C[C@H](F)C4)nc3c(F)c(-c4ccccc4C(F)(F)F)ncc23)CCN1C(=O)/C(F)=C/c1nccs1` [Example 32, 2-((S)-4-(8-fluoro-2-(((2R, 7aS)-2-fluorotetrahydro-1H-pyrrolizin-7a(5H)-yl)methoxy)-7-(2-(trifluoromethyl)phenyl)pyrido[4,3-d]pyrimidin-4-yl)-1-((Z)-2-fluoro-3-(thiazol-2-yl)acryloyl)piperazin-2-yl)acetonitrile], with 76 nM; and `N#Cc1c(N)sc2c(F)ccc(-c3ncc4c(N5CCN(C(=O)/C(F)=C/c6nccs6)CC5)nc(OC[C@@]56CCCN5C[C@H](F)C6)nc4c3F)c12` [Compound 122, 2-amino-7-fluoro-4-(8-fluoro-4-(4-((Z)-2-fluoro-3-(thiazol-2-yl)acryloyl)piperazin-1-yl)-2-(((7aS)-2-fluorotetrahydro-1H-pyrrolizin-7a(5H)-yl)methoxy)pyrido[4,3-d]pyrimidin-7-yl)benzo[b]thiophene-3-carbonitrile], with 6 nM; and `C#Cc1c(F)ccc2cc(O)cc(-c3ncc4c(N5C[C@H]6CC[C@@H](C5)N6C(=O)/C(F)=C/c5ccccn5)nc(OC[C@@]56CCCN5C[C@H](F)C6)nc4c3F)c12` [Compound 2, (Z)-1-((1R, 5S)-3-(7-(8-ethynyl-7-fluoro-3-hydroxynaphthalen-1-yl)-8-fluoro-2-(((2R, 7aS)-2-fluorotetrahydro-1H-pyrrolizin-7a(5H)-yl)methoxy)pyrido[4,3-d]pyrimidin-4-yl)-3,8-diazabicyclo[3.2.1]octan-8-yl)-2-fluoro-3-(pyridin-2-yl)prop-2-en-1-one], with 32 nM. As to `C#Cc1c(F)ccc2cc(O)cc(-c3ncc4c(N5CCN(C(=O)/C(F)=C/c6ncccn6)C[C@@H]5C)nc(OC[C@@]56CCCN5C[C@H](F)C6)nc4c3F)c12` [Example 66, (Z)-1-((S)-4-(7-(8-ethynyl-7-fluoro-3-hydroxynaphthalen-1-yl)-8-fluoro-2-(((2R, 7aS)-2-fluorotetrahydro-1H-pyrrolizin-7a(5H)-yl)methoxy)pyrido[4,3-d]pyrimidin-4-yl)-3-methylpiperazin-1-yl)-2-fluoro-3-(pyrimidin-2-yl)prop-2-en-1-one], the IC50 is less than 2 nM.

On to `Cn1ncc2cccc(-c3ncc4c(N5CCN(C(=O)/C(F)=C/c6ccccn6)CC5)nc(OC[C@@]56CCCN5C[C@H](F)C6)nc4c3F)c21` [Example 38, (Z)-2-fluoro-1-(4-(8-fluoro-2-(((2R, 7aS)-2-fluorotetrahydro-1H-pyrrolizin-7a(5H)-yl)methoxy)-7-(1-methyl-1H-indazol-7-yl)pyrido[4,3-d]pyrimidin-4-yl)piperazin-1-yl)-3-(pyridin-2-yl)prop-2-en-1-one], for which the IC50 came out at 4700 nM. In the case of `C#Cc1cccc2cccc(-c3ncc4c(N(C)C5CCN(C(=O)/C(F)=C/c6ccccn6)C5C)nc(OC[C@@]56CCCN5C[C@H](F)C6)nc4c3F)c12` (single isomer, unassigned) [Example 74 trans isomer 1], the IC50 came to 2.5 nM. With “2-((S)-4-(8-fluoro-2-(((S)-1-methylpyrrolidin-2-yl)methoxy)-7-(naphthalen-1-yl)pyrido[4,3-d]pyrimidin-4-yl)-1-((Z)-2-fluoro-3-(pyridin-2-yl)acryloyl)piperazin-2-yl)acetonitrile [Compound 21B]”, the IC50 was 330 nM. As for `C#Cc1c(F)ccc2cc(O)cc(-c3ncc4c(N5CCN(C(=O)/C(F)=C/c6ncccn6)CC5)nc(OC[C@@]56CCCN5C[C@H](F)C6)nc4c3F)c12` [Example 57, (Z)-1-(4-(7-(8-ethynyl-7-fluoro-3-hydroxynaphthalen-1-yl)-8-fluoro-2-(((2R, 7aS)-2-fluorotetrahydro-1H-pyrrolizin-7a(5H)-yl)methoxy)pyrido[4,3-d]pyrimidin-4-yl)piperazin-1-yl)-2-fluoro-3-(pyrimidin-2-yl)prop-2-en-1-one], the IC50 was determined as 4 nM. Regarding `N#CC[C@H]1CN(c2nc(OC[C@@]34CCCN3C[C@H](F)C4)nc3c(F)c(-c4cc(F)ccc4F)ncc23)CCN1C(=O)/C(F)=C/c1nccs1` [Example 41, 2-((S)-4-(7-(2,5-difluorophenyl)-8-fluoro-2-(((2R, 7aS)-2-fluorotetrahydro-1H-pyrrolizin-7a(5H)-yl)methoxy)pyrido[4,3-d]pyrimidin-4-yl)-1-((Z)-2-fluoro-3-(thiazol-2-yl)acryloyl)piperazin-2-yl)acetonitrile], the IC50 is 760 nM.
